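96-well plates; 48 h exposure; 5 concentrations. Endpoints by linear interpolation between flanking doses. Not reached: highest tested concentration assigned. At the TGI there is no net growth.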
Columns and labels:
Assay in all cases: NCI tumour cell line growth inhibition, 48 h
[1] = system: A498 renal
[2] = system: CCRF-CEM leukemia
[3] = system: COLO 205 colon
[4] = system: DU-145 prostate
[5] = system: HCC-2998 colon
[6] = system: HCT-116 colon
[7] = system: HOP-92 NSCLC
[8] = system: HS 578T breast
[9] = system: MDA-MB-435
[10] = system: SF-268 CNS
[11] = system: SF-539 CNS
[12] = system: SK-OV-3 ovarian
[13] = system: SNB-75 CNS
[14] = system: U251 CNS
[15] = system: ACHN renal
[16] = system: MDA-N

Compound | TGI [1] [µM] | TGI [2] [µM] | TGI [3] [µM] | TGI [4] [µM] | TGI [5] [µM] | TGI [6] [µM] | TGI [7] [µM] | TGI [8] [µM] | TGI [9] [µM] | TGI [10] [µM] | TGI [11] [µM] | TGI [12] [µM] | TGI [13] [µM] | TGI [14] [µM] | TGI [15] [µM] | TGI [16] [µM]
CCOC(=O)c1cc(C2CCN(Cc3ccccc3)C2=O)c(C(=O)C(=[N+]=[N-])C(C)=O)[nH]1 (configuration not stated) | > 100 | > 100 | > 100 | > 100 | > 100 | > 100 | > 100 | > 100 | > 100 | > 100 | > 100 | > 100 | > 100 | > 100 | – | –
CCN(CC)Cc1nc(C2CCC([N+](=O)[O-])O2)no1 (configuration not stated) | – | > 100 | 30.3 | > 100 | 42.4 | 60.4 | > 100 | 82.4 | 35.7 | 79.6 | 49 | > 100 | 96.6 | 62.3 | > 100 | 37.5
CCN1CC2=C(NC(=S)NC2c2cc(OC)c(OC)c(OC)c2)/C(=C/c2cc(OC)c(OC)c(OC)c2)C1 (configuration not stated) | 87.8 | > 100 | 52.9 | > 100 | 88.8 | > 100 | 60.4 | – | > 100 | 37.7 | – | > 100 | 20.8 | > 100 | > 100 | > 100
COP1(=O)NCc2ncccc2O1 (configuration not stated) | > 100 | > 100 | > 100 | > 100 | > 100 | > 100 | > 100 | – | > 100 | – | > 100 | – | > 100 | > 100 | > 100 | > 100
CSc1ccc2c(cc1=O)C(NC(=O)c1ccc(OC(C)=O)cc1)CCc1cc(O)c(O)c(O)c1-2 (configuration not stated) | > 100 | > 100 | 30.8 | – | > 100 | 31.1 | – | – | – | > 100 | 40.1 | 98.1 | 55.6 | 39 | > 100 | –
CC(C)c1cccc(C(C)C)c1NC(=O)C(=O)C(C(=O)c1ccc2ccccc2c1)C1OC(=O)c2ccccc21 (configuration not stated) | > 100 | > 100 | > 100 | – | > 100 | > 100 | > 100 | – | – | > 100 | > 100 | > 100 | – | > 100 | > 100 | –
Cc1ccc(-n2c(Cn3nnc(-c4cccnc4)n3)nn(C3OC(COC(=O)c4ccccc4)C(OC(=O)c4ccccc4)C3OC(=O)c3ccccc3)c2=S)cc1 (configuration not stated) | – | > 100 | > 100 | > 100 | > 100 | > 100 | – | > 100 | > 100 | > 100 | > 100 | > 100 | > 100 | > 100 | > 100 | > 100
NC(=S)N1N=C2c3ccccc3CC[C@H]2[C@@H]1c1cccs1 | > 100 | 81.5 | 40 | – | > 100 | > 100 | > 100 | – | – | > 100 | > 100 | > 100 | – | > 100 | > 100 | –
Oc1c(-c2ccccc2)sc2ccccc12 | 88.4 | 62.5 | 28.2 | 59.5 | 39 | 71 | 57.7 | > 100 | > 100 | > 100 | > 100 | – | 52.1 | > 100 | > 100 | –

Reference: PubChem BioAssay (NCI)
